Experimental data as given in publication PMC8235151, “Glycoside Hydrolases and Non-Enzymatic Glycation Inhibitory Potential of Viburnum opulus L. Fruit—In Vitro Studies” (Antioxidants, 2021).
Values after ≈ are worked out from the molar mass of the structure shown. “Also recorded” adds a separate entry of the source.

What was measured:
[1] = target: T1, α-amylase from porcine pancreas type VI-B (Sus scrofa, UniProt P00690); experiment: α-amylase inhibition assay (starch-iodine, spectrophotometric); assay type: biochemical
T1 construct: α-amylase from porcine pancreas type VI-B; purchased Sigma Aldrich (Steinheim, Germany) type VI-B (catalogue number not given); host or cells: porcine pancreas
T1 sequence (P00690 16-511): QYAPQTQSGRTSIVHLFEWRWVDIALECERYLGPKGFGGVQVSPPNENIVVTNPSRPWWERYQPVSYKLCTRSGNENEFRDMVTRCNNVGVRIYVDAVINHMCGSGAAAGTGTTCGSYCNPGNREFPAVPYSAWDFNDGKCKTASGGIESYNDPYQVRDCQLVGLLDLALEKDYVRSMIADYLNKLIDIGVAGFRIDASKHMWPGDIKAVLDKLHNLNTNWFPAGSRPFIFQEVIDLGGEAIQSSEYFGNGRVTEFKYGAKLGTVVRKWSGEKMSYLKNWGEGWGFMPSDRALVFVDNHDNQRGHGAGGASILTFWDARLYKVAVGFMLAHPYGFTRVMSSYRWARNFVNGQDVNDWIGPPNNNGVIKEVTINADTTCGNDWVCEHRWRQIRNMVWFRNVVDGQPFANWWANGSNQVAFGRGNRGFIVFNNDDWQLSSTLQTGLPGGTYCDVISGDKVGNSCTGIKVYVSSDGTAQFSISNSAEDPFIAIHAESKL
Protocol: (§1) The α-amylase inhibition assay was based on a previously-described spectrophotometric method with some modifications. All reagents were prepared with 0.1 M phosphate buffer containing 6 mM CaCl2 (pH 6.9). Briefly, 20 µL of diluted V. opulus samples and 40 µL of potato starch (0.83 g/L) or starch from rice (1 g/L) solution were mixed with 20 µL of α-amylase (0.1 mg/mL for potato starch and 0.2 mg/mL for starch from rice) in a 96-well plate. […] The absorbance was read at 600 nm using a microplate reader (Synergy2, Biotek Instruments Inc., Winooski, VT, USA). […] Each sample was measured in triplicate.

[2] = target: maltase from rat small intestine; parameters: method as in PMID 16787002; settings: cited from earlier work
[3] = target: T2, α-amylase from porcine pancreas (Sus scrofa, UniProt P00690); experiment: Mode of α-amylase inhibition (Lineweaver-Burk); assay type: biochemical; settings: for type of inhibition against α-amylase: regardless of the type of starch
T2 construct: α-amylase from porcine pancreas type VI-B; purchased Sigma Aldrich (Steinheim, Germany) type VI-B (catalogue number not given); host or cells: porcine pancreas
T2 sequence (P00690 16-511): T1 sequence (P00690 16-511)
Protocol: as §1
The enzymes activities without and with tested samples were studied using the methods described in Section 2.5 and Section 2.6. A double reciprocal graph (1/v versus 1/S, where “v” is the reaction rate and “S” the concentration of the substrate), was plotted. All samples were tested at three different doses using six concentrations of substrate.

[4] = target: sucrase from rat small intestine; parameters: method as in PMID 16787002; settings: cited from earlier work
[5] = test system: AGE formation (BSA-fructose model); experiment: Protein glycation inhibition assay, BSA-fructose model; assay type: biochemical, bovine; settings: 37 °C, 6 days
Protocol: The bovine serum albumin (BSA) and glucose/fructose assay was carried according to the method of Błaszczak et al. with some modifications. We prepared 25 mL of the test solution containing D-glucose or D-fructose (1.0 M), BSA (10 mg/mL) and sodium azide (0.1 mg/mL) in the phosphate buffer (0.1 M, pH 7.4). The test solution (1 mL) was incubated in the dark at 37 °C for 13 days for glucose and for 6 days for fructose with or without 0.5 mL of tested V. opulus samples. […] Next, the formation of AGE was evaluated based on fluorescence intensity at λ = 330 nm (excitation wave) and λ = 460 nm (emission wave). Fluorescence intensity was measured in 96-well plates (black, OptiPlate-96 F, PerkinElmer, UK) in a microplate reader (Synergy2, BioTek Instruments Inc., Winooski, VT, USA).

[6] = target: α-amylase porcine pancreas; parameters: method as in PMID 16787002; settings: cited from earlier work
[7] = test system: rat intestinal α-glucosidase; experiment: α-glucosidase inhibition assay (glucose release from disaccharide); assay type: biochemical
Protocol: The assessment of the α-glucosidase activity was slightly modified according to […] et al. and Gao et al.. […] Enzyme isolation was performed in an ultrasonic cleaner (for 30 sec) in an ice bath, then 30 sec without ultrasonic. This step was repeated 12 times. After that, the solution was centrifuged at 4 °C (3000 rpm, 30 min). 50 μL of diluted V. opulus samples were mixed with 50 μL of enzyme supernatant (diluted 2 times for reaction with maltose). After incubation at 37 °C for 10 min, 50 μL of substrate (0.1 M maltose or 0.5 M sucrose solution prepared in 0.1 M phosphate buffer, pH 6.9) was added and incubated in a 96-well microplate at 37 °C for 20 min for maltose and 60 min for sucrose. The reaction was stopped by adding 150 μL of 2 M Tris-HCl buffer (pH 7.0). The concentration of glucose released from the reaction mixture was determined by the commercial glucose test (BIOMAXIMA SA, Lublin, Poland).

[8] = test system: porcine pancreatic α-amylase; settings: potato and maize starch; cited from earlier work
[9] = test system: rat intestinal α-glucosidase; experiment: Mode of α-glucosidase inhibition (Lineweaver-Burk); assay type: biochemical; settings: for type of inhibition against α-glucosidase: regardless of the type of disaccharide
Protocol: The assessment of the α-glucosidase activity was slightly modified according to […] et al. and Gao et al.. […] Enzyme isolation was performed in an ultrasonic cleaner (for 30 sec) in an ice bath, then 30 sec without ultrasonic. […] After that, the solution was centrifuged at 4 °C (3000 rpm, 30 min). 50 μL of diluted V. opulus samples were mixed with 50 μL of enzyme supernatant (diluted 2 times for reaction with maltose). After incubation at 37 °C for 10 min, 50 μL of substrate (0.1 M maltose or 0.5 M sucrose solution prepared in 0.1 M phosphate buffer, pH 6.9) was added and incubated in a 96-well microplate at 37 °C for 20 min for maltose and 60 min for sucrose. The reaction was stopped by adding 150 μL of 2 M Tris-HCl buffer (pH 7.0). The concentration of glucose released from the reaction mixture was determined by the commercial glucose test (BIOMAXIMA SA, Lublin, Poland). […] A double reciprocal graph (1/v versus 1/S, where “v” is the reaction rate and “S” the concentration of the substrate), was plotted. All samples were tested at three different doses using six concentrations of substrate.

[10] = target: T3, α-amylase (Sus scrofa, UniProt P00690); parameters: method as in doi:10.3390/pr8111388; settings: cited from earlier work
T3 construct: purchased Sigma Aldrich (Steinheim, Germany) type VI-B (catalogue number not given); host or cells: porcine pancreas
T3 sequence (P00690 16-511): T1 sequence (P00690 16-511)

[11] = test system: AGE formation (BSA-glucose model); experiment: Protein glycation inhibition assay, BSA-glucose model; assay type: biochemical, bovine; settings: 37 °C, 13 days
Protocol: The bovine serum albumin (BSA) and glucose/fructose assay was carried according to the method of Błaszczak et al. [45] with some modifications. We prepared 25 mL of the test solution containing D-glucose or D-fructose (1.0 M), BSA (10 mg/mL) and sodium azide (0.1 mg/mL) in the phosphate buffer (0.1 M, pH 7.4). The test solution (1 mL) was incubated in the dark at 37 °C for 13 days for glucose and for 6 days for fructose with or without 0.5 mL of tested V. opulus samples. […] Next, the formation of AGE was evaluated based on fluorescence intensity at λ = 330 nm (excitation wave) and λ = 460 nm (emission wave). Fluorescence intensity was measured in 96-well plates (black, OptiPlate-96 F, PerkinElmer, UK) in a microplate reader (Synergy2, BioTek Instruments Inc., Winooski, VT, USA).

SMILES | Inhibition Type ([3]; potato starch) | type of inhibition against α-amylase [3] | Inhibition Type ([3]; rice starch) | IC50 for the inhibition of AGE formation [5] | IC50 for the inhibition of α-glucosidase ([7]; substrate maltose) | IC50 for the inhibition of α-glucosidase ([7]; substrate sucrose) | Inhibition Type ([9]; maltose) | Ki ([9]; maltose) | type of inhibition against α-glucosidase [9] | Inhibition Type ([9]; sucrose) | Ki ([9]; sucrose) | further results
O=C(/C=C/c1ccc(O)c(O)c1)O[C@@H]1C[C@](O)(C(=O)O)C[C@@H](O)[C@H]1O [Chlorogenic acid] | competitive | competitive | competitive | 58.87 ± 0.93c µg/mL | 103.37 ± 5.29bc µg/mL | 99.81 ± 0.75ab µg/mL | noncompetitive | / 145.41 μg/mL | noncompetitive-type inhibition | noncompetitive | / 181.21 μg/mL | IC50 towards α-amylase higher than IC50 for CE, on average ([1]; average of both starches): 2.7 fold; IC50 towards α-amylase higher than IC50 for PE, on average ([1]; average of both starches): 14 fold; IC50 ([1]; substrate potato starch): 2.35 mM; IC50 ([1]; substrate starch from rice): 5.54 mM; IC50 against maltase [2]: 8810 µg/mL (≈ 24.9 mM); Ki ([3]; potato starch): 3.46 mM; Ki ([3]; rice starch): 5.32 mM; IC50 against sucrase [4]: 500 µg/mL (≈ 1.41 mM); IC50 on α-amylase [6]: 13170 µg/mL (≈ 37.2 mM); lower inhibitory activity against α-glucosidase than PEAF ([7]; maltose): 1.7 fold; type of inhibitory effect on α-amylase hydrolysis of starch [8]: mixed type inhibitory effect; lower inhibitory activity against α-amylase compared to acarbose [10]: 5 fold
Cl.N=C(N)NN [Aminoguanidine, aminoguanidine hydrochloride] | – | – | – | 106.08 ± 3.17 µg·days/mL | – | – | – | – | – | – | – | IC50 for the inhibition of AGE formation [11]: 137.80 ± 3.44a µg/mL
C[C@H]1O[C@H](O[C@H]2[C@H](O)[C@@H](O)[C@@H](O[C@H]3[C@H](O)[C@@H](O)C(O)O[C@@H]3CO)O[C@@H]2CO)[C@H](O)[C@@H](O)[C@@H]1N[C@H]1C=C(CO)[C@@H](O)[C@H](O)[C@H]1O (some centres unmarked) [Acarbose, acarbose] | uncompetitive | uncompetitive; also recorded: uncompetitively | uncompetitive | – | 0.051 ± 0.001a µg/mL | 1.37 ± 0.04a µg/mL | mixed | / 0.021 μg/mL | mixed type of inhibition (competitive and noncompetitive); also recorded: mixed mode of inhibition | mixed | / 1.52 μg/mL | –
